Results as given in PubChem BioAssay (NCI).
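All cell lines were grown in 96-well plates and treated with compound for 48 hours. GI50: concentration for 50% inhibition of growth. TGI denotes the concentration required for complete inhibition of growth.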

Experiments:
Experiment in all cases: DTP human tumour cell line panel, 48 h; in the data active = GI50 below about 0.43 µM; inactive = the rest
786-0 renal = system: 786-0 renal
A498 renal = system: A498 renal
A549 NSCLC = system: A549 NSCLC
ACHN renal = system: ACHN renal
BT-549 breast = system: BT-549 breast
CAKI-1 renal = system: CAKI-1 renal
CCRF-CEM leukemia = system: CCRF-CEM leukemia
COLO 205 colon = system: COLO 205 colon
DU-145 prostate = system: DU-145 prostate
EKVX NSCLC = system: EKVX NSCLC
HCC-2998 colon = system: HCC-2998 colon
HCT-116 colon = system: HCT-116 colon
HCT-15 colon = system: HCT-15 colon
HL-60(TB) leukemia = system: HL-60(TB) leukemia
HOP-62 NSCLC = system: HOP-62 NSCLC
HOP-92 NSCLC = system: HOP-92 NSCLC
HS 578T breast = system: HS 578T breast
HT29 colon = system: HT29 colon
IGROV1 ovarian = system: IGROV1 ovarian
K-562 leukemia = system: K-562 leukemia
KM12 colon = system: KM12 colon
LOX IMVI melanoma = system: LOX IMVI melanoma
M14 melanoma = system: M14 melanoma
MALME-3M melanoma = system: MALME-3M melanoma
MCF7 breast = system: MCF7 breast
MDA-MB-231 breast = system: MDA-MB-231 breast
MDA-MB-435 = system: MDA-MB-435
MDA-MB-468 breast = system: MDA-MB-468 breast
MOLT-4 leukemia = system: MOLT-4 leukemia
NCI-H226 lung = system: NCI-H226 lung
NCI-H23 lung = system: NCI-H23 lung
NCI-H460 lung = system: NCI-H460 lung
NCI-H522 lung = system: NCI-H522 lung
NCI/ADR-RES ovarian = system: NCI/ADR-RES ovarian
OVCAR-3 ovarian = system: OVCAR-3 ovarian
OVCAR-4 ovarian = system: OVCAR-4 ovarian
OVCAR-5 ovarian = system: OVCAR-5 ovarian
OVCAR-8 ovarian = system: OVCAR-8 ovarian
PC-3 prostate = system: PC-3 prostate
RPMI-8226 leukemia = system: RPMI-8226 leukemia
RXF 393 renal = system: RXF 393 renal
SF-268 CNS = system: SF-268 CNS
SF-295 CNS = system: SF-295 CNS
SF-539 CNS = system: SF-539 CNS
SK-MEL-2 melanoma = system: SK-MEL-2 melanoma
SK-MEL-28 melanoma = system: SK-MEL-28 melanoma
SK-MEL-5 melanoma = system: SK-MEL-5 melanoma
SK-OV-3 ovarian = system: SK-OV-3 ovarian
SN12C renal = system: SN12C renal
SNB-19 CNS = system: SNB-19 CNS
SNB-75 CNS = system: SNB-75 CNS
SR leukemia = system: SR leukemia
SW-620 colon = system: SW-620 colon
T-47D breast = system: T-47D breast
TK-10 renal = system: TK-10 renal
U251 CNS = system: U251 CNS
UACC-257 melanoma = system: UACC-257 melanoma
UACC-62 melanoma = system: UACC-62 melanoma
UO-31 renal = system: UO-31 renal

CCCn1c(=O)c2[nH]c(-c3ccc(OCc4nc5ccc(F)cc5[nH]4)cc3)nc2n(CCC)c1=O
67 µM: TGI (OVCAR-3 ovarian)
29 µM: TGI (UO-31 renal)
40.9 µM: TGI (MDA-MB-468 breast)
34 µM: TGI (OVCAR-8 ovarian)
46.9 µM: TGI (LOX IMVI melanoma)
> 100 µM: TGI (786-0 renal) | TGI (A549 NSCLC) | TGI (BT-549 breast) | TGI (CCRF-CEM leukemia) | TGI (COLO 205 colon) | TGI (DU-145 prostate) | TGI (EKVX NSCLC) | TGI (HCC-2998 colon) | TGI (HCT-116 colon) | TGI (HCT-15 colon) | TGI (HL-60(TB) leukemia) | TGI (HOP-62 NSCLC) | TGI (HS 578T breast) | TGI (HT29 colon) | TGI (IGROV1 ovarian) | TGI (K-562 leukemia) | TGI (KM12 colon) | TGI (M14 melanoma) | TGI (MDA-MB-435) | TGI (MOLT-4 leukemia) | TGI (NCI-H23 lung) | TGI (NCI-H522 lung) | TGI (NCI/ADR-RES ovarian) | TGI (OVCAR-4 ovarian) | TGI (OVCAR-5 ovarian) | TGI (PC-3 prostate) | TGI (RPMI-8226 leukemia) | TGI (SF-268 CNS) | TGI (SK-MEL-2 melanoma) | TGI (SK-MEL-28 melanoma) | TGI (SK-OV-3 ovarian) | TGI (SN12C renal) | TGI (SNB-19 CNS) | TGI (SR leukemia) | TGI (SW-620 colon) | TGI (TK-10 renal) | TGI (U251 CNS) | TGI (UACC-257 melanoma) | TGI (UACC-62 melanoma)
38.7 µM: TGI (MALME-3M melanoma)
11.3 µM: TGI (RXF 393 renal)
27.7 µM: TGI (SF-539 CNS)
50.1 µM: TGI (ACHN renal)
36.9 µM: TGI (NCI-H226 lung)
32.3 µM: TGI (NCI-H460 lung)
20.2 µM: TGI (SNB-75 CNS)
62.4 µM: TGI (CAKI-1 renal)
50.4 µM: TGI (T-47D breast)
36.8 µM: TGI (HOP-92 NSCLC)
93.2 µM: TGI (MCF7 breast)
39.3 µM: TGI (MDA-MB-231 breast)
inactive: GI50 (786-0 renal) 16.2 µM | GI50 (A498 renal) 3.36 µM | GI50 (A549 NSCLC) 15.5 µM | GI50 (ACHN renal) 14.9 µM | GI50 (BT-549 breast) 25 µM | GI50 (CAKI-1 renal) 15.9 µM | GI50 (CCRF-CEM leukemia) 8.91 µM | GI50 (COLO 205 colon) 99.1 µM | GI50 (DU-145 prostate) 41.5 µM | GI50 (EKVX NSCLC) 30.3 µM | GI50 (HCC-2998 colon) > 100 µM | GI50 (HCT-116 colon) 22.4 µM | GI50 (HCT-15 colon) 30 µM | GI50 (HL-60(TB) leukemia) > 100 µM | GI50 (HOP-62 NSCLC) 9.88 µM | GI50 (HOP-92 NSCLC) 4.78 µM | GI50 (HS 578T breast) 4.1 µM | GI50 (HT29 colon) 26.9 µM | GI50 (IGROV1 ovarian) 16.5 µM | GI50 (K-562 leukemia) 8.81 µM | GI50 (KM12 colon) 78.9 µM | GI50 (LOX IMVI melanoma) 15.9 µM | GI50 (M14 melanoma) 52 µM | GI50 (MALME-3M melanoma) 12.6 µM | GI50 (MCF7 breast) 8.54 µM | GI50 (MDA-MB-231 breast) 15.7 µM | GI50 (MDA-MB-435) 25.1 µM | GI50 (MDA-MB-468 breast) 4.75 µM | GI50 (MOLT-4 leukemia) 6.44 µM | GI50 (NCI-H226 lung) 11.2 µM | GI50 (NCI-H23 lung) 21 µM | GI50 (NCI-H460 lung) 11.1 µM | GI50 (NCI-H522 lung) 8.29 µM | GI50 (NCI/ADR-RES ovarian) 30.4 µM | GI50 (OVCAR-3 ovarian) 15.1 µM | GI50 (OVCAR-4 ovarian) 4.24 µM | GI50 (OVCAR-5 ovarian) > 100 µM | GI50 (OVCAR-8 ovarian) 6.34 µM | GI50 (PC-3 prostate) 5.96 µM | GI50 (RPMI-8226 leukemia) 5.14 µM | GI50 (RXF 393 renal) 2.76 µM | GI50 (SF-268 CNS) 25 µM | GI50 (SF-295 CNS) 4.64 µM | GI50 (SF-539 CNS) 12.2 µM | GI50 (SK-MEL-2 melanoma) > 100 µM | GI50 (SK-MEL-28 melanoma) 28.1 µM | GI50 (SK-MEL-5 melanoma) 8.5 µM | GI50 (SK-OV-3 ovarian) 21 µM | GI50 (SN12C renal) 16.5 µM | GI50 (SNB-19 CNS) > 100 µM | GI50 (SNB-75 CNS) 2.48 µM | GI50 (SR leukemia) 22.3 µM | GI50 (SW-620 colon) 37.2 µM | GI50 (T-47D breast) 4.4 µM | GI50 (TK-10 renal) 24.4 µM | GI50 (U251 CNS) 17.3 µM | GI50 (UACC-257 melanoma) 30.4 µM | GI50 (UACC-62 melanoma) 12.3 µM | GI50 (UO-31 renal) 9.09 µM
33.3 µM: TGI (SK-MEL-5 melanoma)
65.6 µM: TGI (SF-295 CNS)
21.3 µM: TGI (A498 renal)
